Blank lines part the entries; values can stand above or below the compound they belong to.
System: 313798-341-R-J2-PDC spheroids, viability
Assay: Anticancer human tumor 313798-341-R-J2-PDC patient-derived cervical squamous cell carcinoma cell line growth inhibition [PI3K]
Settings: spheroids with HUVEC and MSC; for IC50: curve of first compound; for viability, T/C: stronger effect = lower value
Description: Combinatorial screen of targeted agents with the PI3K inhibitors inavolisib, alpelisib, duvelisib, and copanlisib in multi-cell type tumor spheroids
A high-throughput screen of multi-cell type tumor spheroids was designed to identify active combinations of targeted small molecules and PI3K pathway inhibitors. Complex spheroids include a stromal component modeled by human endothelial cells (HUVEC) and fibroblasts modeled by human mesenchymal stem cells (MSCs). The concentration ranges selected for each drug and investigational agent were based upon clinically achievable concentrations if the clinical Cmax of the agent was known.
Compounds. The drugs and investigational agents: inavolisib (NSC800729), alpelisib (NSC765974), duvelisib (NSC772469), copanlisib (NSC816437), ipatasertib (NSC767898), afuresertib (NSC778305), talazoparib (NSC767125), sapanisertib (NSC764658), selumetinib (NSC741078), tovorafenib (DAY101, NSC766906), vemurafenib (NSC761431), ravoxertinib (NSC781343), sotorasib (NSC818433), MRTX1133 (NSC 836407), abemaciclib (NSC 768073), palbociclib (NSC758247), venetoclax (NSC 766270), SY5609 (NSC837396), enzalutamide (NSC755605), and darolutamide (NSC825331), were obtained from the National Cancer Institute (NCI) Developmental Therapeutics Program Chemical Repository. The FDA-approved anticancer drug set is available from the NCI Developmental Therapeutics Program. […] The stock solutions were prepared in dimethyl sulfoxide (DMSO, Sigma-Aldrich, St. Louis, MO, cat. D2650) at 800-fold the tested concentration and stored at -70 degrees C prior to their use. All drugs and investigational agents were tested over a range starting from a high concentration at or near the clinical Cmax and decreasing in half-log increments. If the clinical Cmax for an agent had not been determined, the highest concentration tested was 10 microM.
Cell Culture. All cells were maintained in an incubator at 37 degrees C and 5% CO2 with 95% humidity. The PDC lines were cultured according to standard operating procedures established by the NCI PDMR (https://pdmr.cancer.gov/sops/default.htm). All PDCs were thawed and cultured in Matrigel-coated flasks prepared with a working solution of 1X Ham's F-12 nutrient mix, without supplementation (Invitrogen, Waltham, MA, cat. 11765054), 100 U/mL penicillin-streptomycin (Invitrogen, cat. 15140122), and 2.5% Matrigel (Corning Inc., Corning, NY, cat. 354248) for the first three passages. The 354836-022-R-J1-PDC, 475296-252-R-J1-PDC, and 997726-040-R-J2-PDC lines were cultured in 6A media, which includes advanced DMEM/F-12 (Thermo Fisher Scientific, cat. 12634028), 10 mM HEPES (Thermo Fisher Scientific, cat. 15630080), 1X GlutaMAX supplement (Thermo Fisher Scientific, cat. 35050061), 0.1 mg/mL primocin (InvivoGen, San Diego, CA, cat. ant-pm-2), 10% defined fetal bovine serum, heat inactivated (HyClone Laboratories Inc., Logan, UT, cat. SH30070.03HI), 50% L-WRN conditioned media (ATCC, cat. CRL-3276), 1.25 mM N-Acetyl-L-cysteine (Sigma-Aldrich, cat. A9165), 10 mM nicotinamide (Sigma-Aldrich, cat. N0636), 1X B-27 supplement (Thermo Fisher Scientific, cat. 17504044), 1X N-2 supplement (Thermo Fisher Scientific, cat. 17502048), and 10 microM Y-27632 dihydrochloride (Tocris Bioscience, Bristol, United Kingdom, cat. 1254). The 624824-186-R-J2-PDC line was cultured in 6C/Colon 1B media, which includes all 6A media components plus 50 ng/mL human EGF recombinant protein (Thermo Fisher Scientific, cat. PHG0311). […]

[1] = second compound 0.00316 µM, first compound 0.0316 µM
[2] = second compound 0.00316 µM, first compound 0.1 µM
[3] = second compound 0.01 µM, first compound 0.0316 µM
[4] = second compound 0.01 µM, first compound 0.1 µM
[5] = second compound 0.0316 µM, first compound 0.0316 µM
[6] = second compound 0.0316 µM, first compound 0.1 µM
[7] = second compound 0.1 µM, first compound 0.0316 µM
[8] = second compound 0.1 µM, first compound 0.1 µM
[9] = second compound 0.316 µM, first compound 0.0316 µM
[10] = second compound 0.316 µM, first compound 0.1 µM
[11] = second compound 1 µM, first compound 0.0316 µM
[12] = second compound 1 µM, first compound 0.1 µM
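Further: spheroids exposed to compounds for seven days.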
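Wherever viability, T/C is given: 100% = DMSO vehicle control viability.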

IC50 (second compound 0.00316 µM): 5940 nM
IC50 (second compound 0.01 µM): 5980 nM
IC50 (second compound 0.0316 µM): 5900 nM
IC50 (second compound 0.1 µM): 4720 nM
IC50 (second compound 0.316 µM): 1910 nM
IC50 (second compound 1 µM): < 31.6 nM
Structure (SMILES): C[C@@H](NC(=O)c1ncnc(N)c1Cl)c1ncc(C(=O)Nc2cc(C(F)(F)F)c(Cl)cn2)s1 + CC(Nc1ccc2c(c1)OCCn1cc(N3C(=O)OCC3C(F)F)nc1-2)C(N)=O
viability, T/C [1]: 101%
viability, T/C [2]: 106%
viability, T/C (second compound 0.00316 µM, first compound 0.316 µM): 103%
viability, T/C (second compound 0.00316 µM, first compound 1 µM): 95.4%
viability, T/C (second compound 0.00316 µM, first compound 3.16 µM): 110%
viability, T/C (second compound 0.00316 µM, first compound 10 µM): 6.06%
viability, T/C [3]: 110%
viability, T/C [4]: 105%
viability, T/C (second compound 0.01 µM, first compound 0.316 µM): 95.1%
viability, T/C (second compound 0.01 µM, first compound 1 µM): 105%
viability, T/C (second compound 0.01 µM, first compound 3.16 µM): 110%
viability, T/C (second compound 0.01 µM, first compound 10 µM): 5.51%
viability, T/C [5]: 99.9%
viability, T/C [6]: 103%
viability, T/C (second compound 0.0316 µM, first compound 0.316 µM): 110%
viability, T/C (second compound 0.0316 µM, first compound 1 µM): 114%
viability, T/C (second compound 0.0316 µM, first compound 3.16 µM): 99.6%
viability, T/C (second compound 0.0316 µM, first compound 10 µM): 8.08%
viability, T/C [7]: 81.9%
viability, T/C [8]: 78%
viability, T/C (second compound 0.1 µM, first compound 0.316 µM): 91.8%
viability, T/C (second compound 0.1 µM, first compound 1 µM): 92.7%
viability, T/C (second compound 0.1 µM, first compound 3.16 µM): 73.3%
viability, T/C (second compound 0.1 µM, first compound 10 µM): 6.24%
viability, T/C [9]: 55.2%
viability, T/C [10]: 54.6%
viability, T/C (second compound 0.316 µM, first compound 0.316 µM): 61.6%
viability, T/C (second compound 0.316 µM, first compound 1 µM): 66.5%
viability, T/C (second compound 0.316 µM, first compound 3.16 µM): 42.6%
viability, T/C (second compound 0.316 µM, first compound 10 µM): 9.28%
viability, T/C [11]: 51.8%
viability, T/C [12]: 41.5%
viability, T/C (second compound 1 µM, first compound 0.316 µM): 53.4%
viability, T/C (second compound 1 µM, first compound 1 µM): 45.4%
viability, T/C (second compound 1 µM, first compound 3.16 µM): 29.3%
viability, T/C (second compound 1 µM, first compound 10 µM): 14.3%

IC50 (second compound 0.00316 µM): > 100 nM
IC50 (second compound 0.01 µM): > 100 nM
IC50 (second compound 0.0316 µM): > 100 nM
IC50 (second compound 0.1 µM): > 100 nM
IC50 (second compound 0.316 µM): > 100 nM
IC50 (second compound 1 µM): 22.5 nM
Structure (SMILES): Cn1ncnc1[C@H]1c2n[nH]c(=O)c3cc(F)cc(c23)N[C@@H]1c1ccc(F)cc1 + CC(Nc1ccc2c(c1)OCCn1cc(N3C(=O)OCC3C(F)F)nc1-2)C(N)=O
viability, T/C (second compound 0.00316 µM, first compound 0.000316 µM): 104%
viability, T/C (second compound 0.00316 µM, first compound 0.001 µM): 96.2%
viability, T/C (second compound 0.00316 µM, first compound 0.00316 µM): 99.1%
viability, T/C (second compound 0.00316 µM, first compound 0.01 µM): 98.1%
viability, T/C [1]: 94.9%
viability, T/C [2]: 84.7%
viability, T/C (second compound 0.01 µM, first compound 0.000316 µM): 95.7%
viability, T/C (second compound 0.01 µM, first compound 0.001 µM): 104%
viability, T/C (second compound 0.01 µM, first compound 0.00316 µM): 88.5%
viability, T/C (second compound 0.01 µM, first compound 0.01 µM): 93.5%
viability, T/C [3]: 92.8%
viability, T/C [4]: 83.5%
viability, T/C (second compound 0.0316 µM, first compound 0.000316 µM): 107%
viability, T/C (second compound 0.0316 µM, first compound 0.001 µM): 102%
viability, T/C (second compound 0.0316 µM, first compound 0.00316 µM): 115%
viability, T/C (second compound 0.0316 µM, first compound 0.01 µM): 106%
viability, T/C [5]: 100%
viability, T/C [6]: 100%
viability, T/C (second compound 0.1 µM, first compound 0.000316 µM): 102%
viability, T/C (second compound 0.1 µM, first compound 0.001 µM): 102%
viability, T/C (second compound 0.1 µM, first compound 0.00316 µM): 91.7%
viability, T/C (second compound 0.1 µM, first compound 0.01 µM): 89%
viability, T/C [7]: 96.9%
viability, T/C [8]: 72.8%
viability, T/C (second compound 0.316 µM, first compound 0.000316 µM): 77.2%
viability, T/C (second compound 0.316 µM, first compound 0.001 µM): 78%
viability, T/C (second compound 0.316 µM, first compound 0.00316 µM): 78.3%
viability, T/C (second compound 0.316 µM, first compound 0.01 µM): 73.6%
viability, T/C [9]: 71.3%
viability, T/C [10]: 58.1%
viability, T/C (second compound 1 µM, first compound 0.000316 µM): 57.5%
viability, T/C (second compound 1 µM, first compound 0.001 µM): 57%
viability, T/C (second compound 1 µM, first compound 0.00316 µM): 58.3%
viability, T/C (second compound 1 µM, first compound 0.01 µM): 48.1%
viability, T/C [11]: 52.1%
viability, T/C [12]: 38.1%
